Assay results reported in patent US9057725B2, “Composition for diagnosing, treating, and preventing liver disease” (SNU R&DB Foundation, priority 2010, dated 2015).
Entries after “also recorded” stand apart in the source; their conditions may differ.

Experiments:
human TM4SF5 promoter = experiment: Luciferase reporter gene assay with TM4SF5 promoter in Huh7, HepG2 and SNU16mAd cells; format: cell-based
Method: Particularly, Huh7 and HepG2 (liver cancer cell lines), and SNU16mAd (stomach cancer cell line) were transfected with pBabe-galactosidase (Choi et al., 2009, Blood 113:1845-1855) containing pGL3-human TM4SF5 promoter prepared by inserting genomic fragment of TM4SF5 upstream promoter located approximately −3 kb ahead of TM4SF5 gene in pGL3 luciferase vector (Promega), followed by harvesting 24 hours later. Then, luciferase activity of the reporter gene was measured. Infection efficiency was confirmed by measuring beta-galactosidase activity, followed by quantification after normalization. […] Unlike pGL3-TM4SF5 that was the construct harboring TM4SF5 promoter region whose transcriptional activity could be confirmed, pGL3-basic was the construct without the promoter, meaning transcription would not be activated, which was thereby used as the control (FIG. 2).

Chang cells [1] = experiment: TM4SF5 expression and EGFR signal transduction system over treatment times of TGFβ and EGF in Chang cells; format: cell-based, human; details: TGFβ (2.5 ng/ml) and EGF (50 ng/ml), 0, 0.5, 1, 2, and 24 hours
Method: Chang cells were cultured in DMEM supplemented with 10% FBS, which were then washed with serum-free DMEM. The cells were maintained as serum-free status for 4 hours. […] Then, TM4SF5 expression and EGFR signal transduction system were investigated.

AML12 cells = experiment: TM4SF5 expression and EMT induced by TGFβ in AML12 cells; format: cell-based, mouse
Method: (§1) AML12 cells (ATCC, USA), the normal mouse hepatocytes, and Chang cells (ATCC, USA), the normal human hepatocytes, cultured in DMEM supplemented with 10% FBS were washed with serum-free DMEM, which were maintained as serum-free status for 4 hours. After serum starvation, the cells were treated with TGFβ (2.5 ng/ml), followed by further culture for 24 hours. At last, cell extracts were prepared.
TM4SF5 protein expression was increased in those extracts, confirmed by immunoblotting and immunofluorescence assay using antibodies against pSmad3, pSmad2 (Cell Signaling Technology, Danvers, Mass.), vimentin (Sigma-Aldrich), E-adherin (Santa Cruz Biotechnology, Santa Cruz, Calif.), and TM4SF5 (Sin-Ae Lee et al., J. Clin. Invest. 2008 April; 118(4):1354-66). The nucleotide sequence of TM4SF5 antibody was confirmed by using pGEX-5X2 vector (Amersham) comprising c-terminal of TM4SF5 (the region from the 229th nucleotide residue to the 594th nucleotide residue, digested with EcoR1). To obtain recombinant protein induced by IPTG from DH5a bacteria, PBS comprising 0.3% SDS and protease inhibitor was used. After protein extraction, antigen was extracted from electrophoresed SDS gel, followed by immunizing mice with that. After immune response was induced three times in total, serum was obtained from the mice. Immunoreactivity of the serum with recombinant protein and animal cell extract was investigated.
As a result, as shown in FIG. 3 and FIG. 5, when AML12 cells were treated with TGFβ, TM4SF5 expression was increased. In addition, EMT (epithelial-mesenchymal transition) was induced by the increases of α-SMA and vimentin and the decrease of E-cadherin. It was also confirmed by immunoblotting that the expression of E-cadherin, which is important for cell-cell contact, was reduced, but the expression of vimentin, the mesenchymal cell marker, was increased. In the meantime, according to immunofluorescence assay, the cells were placed on cover glass coated with fibronectin (10 μg/ml) to perform immunofluorescence staining, followed by treating with TGFβ. Upon completion of immunofluorescence staining with vimentin antibody, the cover glass was observed under fluorescence microscope. As a result, vimentin expression was increased, compared with the control treated with vehicle (PBS, phosphate saline buffer) only without TGFβ, and EMT was confirmed by dispersed cell pattern (FIG. 3).

Chang cells [2] = experiment: TM4SF5 expression and EMT induced by TGFβ in Chang cells; format: cell-based, human
Method: as §1
Chang cells, the normal human hepatocytes, were treated with TGFβ, followed by immunoblotting. As a result, it was confirmed that TM4SF5 expression was induced. From the comparison of cellular morphology, it was also confirmed that cell-cell contact became weak, compared with the control treated with vehicle (PBS) only without TGFβ, and EMT was induced, and the expression of α-SMA, the mesenchymal cell marker, was increased (FIG. 4).
In addition, Chang cells, the normal human hepatocytes, were treated with TGFβ at different concentrations of 0, 2.5 and 5 ng/ml, followed by immunoblotting. […] EGFR signal transduction system was also activated, confirmed by using antibodies against phospho-Y^1173EGFR (Santa Cruz Biotechnology, Santa Cruz, Calif.), EGFR (Santa Cruz Biotechnology, Santa Cruz, Calif.), phospho-Erk, phospho-Smad2, phospho-Smad3 (Cell Signaling Technology, Danvers, Mass.), and α-tubulin (Sigma-Aldrich) (FIG. 5).

TM4SF5 expression [3] = experiment: TGFβ mediated TM4SF5 expression in Chang cells infected with Smad adenoviruses with AG1478; format: cell-based, human; details: group treated with Smad2 and Smad4 adenoviruses, AG1478 1 hour before TGFβ, 24 hours
Method: In addition, Chang cells were infected with Smad2, Smad3, and Smad4 adenoviruses for 24 hours, followed by serum starvation for 24 hours. After serum starvation, the cells were treated with AG1478 1 hour before the treatment of TGFβ in order to inhibit EGFR signaling. After the treatment of TGFβ, the cells were further cultured for 24 more hours. Then, the protein in the cell extract was quantified, followed by Western blotting. As a result, it was confirmed that TGFβ mediated TM4SF5 expression was reduced by AG1478 in the group treated with Smad2 and Smad4 adenoviruses.

TM4SF5 expression [4] = experiment: TM4SF5 expression mediated by conditioned medium of LX2 cells in AML12 cells with AG1478; format: cell-based, mouse; details: AG1478 100 nM, 24 hours
Method: Particularly, one hour before the treatment of conditioned medium of LX2 cells to AML12 cells, AG1478 (100 nM) was added to the medium to inhibit EGFR kinase activity, leading to the suppression of EGFR signaling, which was then treated to AML12 cells, followed by further culture for 24 hours.

TM4SF5 expression [5] = experiment: TGFβ mediated TM4SF5 expression in AML12 cells with EGFR inhibitor, Western blotting and optical microscope; format: cell-based, mouse
Method: Particularly, AML12 cells were cultured in DMEM supplemented with 10% FBS, which were then washed with serum-free DMEM. The cells were maintained as serum-free status for 4 hours. After serum starvation, the cells were treated with DMSO (control vehicle) and AG1478 (100 nM) 30 minutes before the treatment of TGFβ (2.5 ng/ml) in order to inhibit EGFR signaling. After the treatment of TGFβ (R&D systems, Minneapolis, Minn., USA), the cells were further cultured for 24 more hours.
Western blotting was performed with antibodies against phospho-Y^1173EGFR (Santa Cruz Biotechnology, Santa Cruz, Calif.), phospho-Y^992EGFR (Cell Signaling Technology, Danvers, Mass.), phospho-Erk (Cell Signaling Technology, Danvers, Mass.), phospho-Smad2 (Cell Signaling Technology, Danvers, Mass.), phospho-Smad3 (Cell Signaling Technology, Danvers, Mass.), TM4SF5, and α-tubulin (Sigma-Aldrich) to investigate the expressions of TM4SF5 and EGFR signal transduction system related factors.
(2) AML12 cells were cultured in DMEM supplemented with 10% FBS, which were then washed with serum-free DMEM. The cells were maintained as serum-free status for 4 hours. After serum starvation, the cells were treated with various inhibitors such as PD98059 (MEK inhibitor, LC Laboratories, Woburn, Mass.), LY294002 (PI3K inhibitor), PP2, PP3 (src inhibitor, Tocris Cookson, Avonmouth, UK), Rapamycin (mTOR inhibitor), GF109203 (PKC inhibitor, Calbiochem, San Diego, Calif.), AG1478 (EGFR inhibitor, LC Laboratories, Woburn, Mass.), U0126 (ERK1/2 inhibitor, LC Laboratories, Woburn, Mass.), SP600125 (Jnk inhibitor), and Y-27632 (ROCK inhibitor, Calbiochem, San Diego, Calif.) 30 minutes before the treatment of TGFβ (2.5 ng/ml). Then, TM4SF5 expression was examined. As a result, TM4SF5 expression was reduced by AG1478 under the near death condition (the condition in which phospho-Y^397 FAK level was high) (FIG. 8).

[6] = Chang cells, 0, 2.5 and 5 ng/ml

With “TGFβ: transforming growth factor β, a multi-functional cytokine (R&D systems)” the “transcriptional activity of TM4SF5 promoter region (luciferase)” value (human TM4SF5 promoter) was “increased”, the “EGFR signal transduction system activation and TM4SF5 expression over time” value (Chang cells [1]) was “induced continuously” and the “EMT (epithelial-mesenchymal transition)” value (AML12 cells; TGFβ 2.5 ng/ml, 24 hours) was “induced”. For the same compound, the TM4SF5 expression (AML12 cells; TGFβ 2.5 ng/ml, 24 hours) was “increased”, the E-cadherin expression (AML12 cells; immunoblotting) was “reduced” and the vimentin expression (AML12 cells; immunoblotting) was “increased”. For the same compound, the α-SMA expression (Chang cells [2]; Chang cells) was “increased”, the “EGFR signal transduction system” value (Chang cells [2]; [6]) was “activated” and the “TM4SF5 protein expression at different TGFβ concentrations” value (Chang cells [2]; [6]) was “increased TGFβ dose-dependently”. The cell-cell contact (Chang cells [2]; Chang cells, compared with vehicle (PBS)) was “became weak” and the TM4SF5 expression (Chang cells [2]; Chang cells, immunoblotting) was “induced”.

In the case of COc1cc2ncnc(Nc3cccc(Cl)c3)c2cc1OC [AG1478], the “TGFβ mediated TM4SF5 expression” value (TM4SF5 expression [3]) is reported as “reduced”, the “TM4SF5 expression mediated by conditioned medium of LX2 cells” value (TM4SF5 expression [4]) is reported as “reduced; also recorded: not increased any more” and the “cell-cell contact (TGFβ mediated cell dispersion, cell morphology change)” value (TM4SF5 expression [5]; AML12 cells, AG1478 100 nM, TGFβ 2.5 ng/ml, optical microscope) is reported as “maintained; also recorded: suppressed”. For the same compound, the “TGFβ mediated TM4SF5 expression” value (TM4SF5 expression [5]; AML12 cells, inhibitor 30 minutes before TGFβ (2.5 ng/ml), AG1478 100 nM, 24 hours) was “decreased; also recorded: reduced; also recorded: suppressed” and the “TGFβ signaling Smad2 activation” value (TM4SF5 expression [5]; suppression of EGFR activation by AG1478) was “did not affect”.
